Reference: ChEMBL document CHEMBL1770079, “Discovery of small molecule human FPR1 receptor antagonists” (Bioorg Med Chem Lett, 2011)
pIC50, pKi: −log10 of the molar value. Values after ≈ are worked out from the molar mass of the structure shown. Blank lines part the entries; values can stand above or below the compound they belong to. Active and inactive are the calls of the source. The calls are words filed in the database; no cut-off is given here.

Assays:
[1] = target: T1, fMet-Leu-Phe receptor (Homo sapiens, UniProt P21462); experiment: Intrinsic activity at FPR1 in human neutrophils assessed as increase in calcium mobilization by FLIPR assay relative to fMLF; assay type: functional
T1 sequence (P21462 whole entry): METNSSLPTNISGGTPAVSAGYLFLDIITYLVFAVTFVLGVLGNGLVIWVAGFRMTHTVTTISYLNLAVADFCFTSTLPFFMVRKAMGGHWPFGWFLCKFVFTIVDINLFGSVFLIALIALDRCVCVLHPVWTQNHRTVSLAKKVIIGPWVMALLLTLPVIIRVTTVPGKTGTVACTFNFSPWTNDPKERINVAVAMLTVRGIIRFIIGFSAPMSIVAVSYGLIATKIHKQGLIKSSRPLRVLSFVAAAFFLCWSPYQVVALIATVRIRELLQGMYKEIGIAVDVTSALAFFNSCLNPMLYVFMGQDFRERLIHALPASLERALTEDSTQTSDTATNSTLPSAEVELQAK

[2] = target: T2, fMet-Leu-Phe receptor (Homo sapiens) (UniProt P21462); experiment: Agonist activity at FPR1 in human neutrophils assessed as increase in calcium mobilization by FLIPR assay; assay type: functional; parameters: concentration or dose not given beside the values; conditions: concentration not given here
T2 sequence (whole entry): T1 sequence (P21462 whole entry)

[3] = target: T1, fMet-Leu-Phe receptor; experiment: Antagonist activity at FPR1; assay type: functional
[4] = tested on: Hepatocyte; experiment: Intrinsic clearance in Sprague-Dawley rat hepatocytes; assay type: ADME, cell-based, Liver
[5] = target: T3, C-X-C chemokine receptor type 2 (Homo sapiens) (UniProt P25025); experiment: Antagonist activity at CXCR2 in human neutrophils assessed as inhibition of GROalpha-stimulated intracellular calcium mobilization at 50 uM by FLIPR assay; assay type: functional, cell-based
T3 sequence (whole entry): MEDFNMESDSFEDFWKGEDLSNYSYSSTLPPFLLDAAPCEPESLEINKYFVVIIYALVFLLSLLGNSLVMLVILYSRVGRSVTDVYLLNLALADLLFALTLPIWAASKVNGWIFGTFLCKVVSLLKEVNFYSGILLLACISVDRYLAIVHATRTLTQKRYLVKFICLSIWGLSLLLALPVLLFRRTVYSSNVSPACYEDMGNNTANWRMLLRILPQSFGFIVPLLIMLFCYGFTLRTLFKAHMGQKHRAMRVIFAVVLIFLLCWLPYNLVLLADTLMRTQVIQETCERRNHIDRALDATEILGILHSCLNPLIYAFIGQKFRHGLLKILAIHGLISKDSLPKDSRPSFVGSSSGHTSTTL

[6] = target: T1, fMet-Leu-Phe receptor; experiment: Displacement of [3H]fMLF from human FPR1 expressed in CHO cells by scintillation counting; assay type: cell-based
[7] = target: T4, C5a anaphylatoxin chemotactic receptor 1 (Homo sapiens) (UniProt P21730); experiment: Antagonist activity at C5aR in human neutrophils assessed as inhibition of C5a-stimulated intracellular calcium mobilization at 50 uM by FLIPR assay; assay type: functional, cell-based
T4 sequence (whole entry): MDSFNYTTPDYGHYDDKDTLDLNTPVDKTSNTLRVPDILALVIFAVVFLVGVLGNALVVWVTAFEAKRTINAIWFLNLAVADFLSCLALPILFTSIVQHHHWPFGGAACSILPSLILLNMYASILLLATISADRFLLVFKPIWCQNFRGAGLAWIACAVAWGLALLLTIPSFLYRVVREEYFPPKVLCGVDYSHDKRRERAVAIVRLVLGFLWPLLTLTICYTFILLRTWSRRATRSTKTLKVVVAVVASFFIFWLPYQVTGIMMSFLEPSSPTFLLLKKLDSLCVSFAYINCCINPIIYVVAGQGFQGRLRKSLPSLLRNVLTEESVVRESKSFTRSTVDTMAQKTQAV

[8] = target: T5, N-formyl peptide receptor 2 (Homo sapiens) (UniProt P25090); experiment: Antagonist activity at FPR2 in human neutrophils assessed as inhibition of SHHGtide-stimulated intracellular calcium mobilisation at 50 uM by FLIPR assay; assay type: functional, cell-based
T5 sequence (whole entry): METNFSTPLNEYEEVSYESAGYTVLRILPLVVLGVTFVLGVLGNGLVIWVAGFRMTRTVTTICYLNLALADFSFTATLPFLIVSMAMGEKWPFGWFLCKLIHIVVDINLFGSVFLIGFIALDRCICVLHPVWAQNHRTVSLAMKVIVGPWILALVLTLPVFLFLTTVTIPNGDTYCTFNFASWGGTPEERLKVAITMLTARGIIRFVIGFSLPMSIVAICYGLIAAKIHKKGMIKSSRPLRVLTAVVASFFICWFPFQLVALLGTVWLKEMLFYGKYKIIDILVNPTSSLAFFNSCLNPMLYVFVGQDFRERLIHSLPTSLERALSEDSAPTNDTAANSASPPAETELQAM

[9] = target: T1, fMet-Leu-Phe receptor; experiment: Antagonist activity at FPR1 in human neutrophils assessed as inhibition of fMLF-stimulated degranulation after 15 mins by fluorescence assay; assay type: functional
[10] = Antagonist activity at rat FPR1 expressed in HEK293 cells assessed as inhibition of fMLF-stimulated intracellular calcium mobilisation by FLIPR assay; assay type: functional, cell-based
[11] = Chemical stability of the compound assessed as half life; assay type: physicochemical
[12] = target: T1, fMet-Leu-Phe receptor; experiment: Antagonist activity at FPR1 in human neutrophils assessed as inhibition of fMLF-stimulated calcium mobilization by FLIPR assay; assay type: functional
[13] = target: T2, fMet-Leu-Phe receptor (Homo sapiens); experiment: Antagonist activity at FPR1 in human neutrophils assessed as inhibition of PMA-stimulated neutrophil degranulation after 15 mins by fluorescence assay; assay type: functional
[14] = tested on: THP-1; experiment: Cytotoxicity against human THP1 cells assessed as cell viability after 24 hrs by Alamar blue assay; assay type: cell-based; conditions: THP-1, 24 h
[15] = Solubility of the compound in 0.1 M phosphate buffer; assay type: physicochemical
[16] = target: T2, fMet-Leu-Phe receptor (Homo sapiens); experiment: Reversible inhibition of FPR1 in human neutrophils assessed as inhibition of fMLF-stimulated calcium mobilisation by FLIPR assay; assay type: functional
[17] = Intrinsic clearance in human microsomes; assay type: ADME, Microsome
[18] = target: T1, fMet-Leu-Phe receptor; experiment: Antagonist activity at human FPR1 in expressed in HEK293 cells assessed as inhibition of fMLF-stimulated intracellular calcium mobilisation after 5 mins by FLIPR assay; assay type: functional, cell-based
[19] = target: T6, fMet-Leu-Phe receptor (Mus musculus, UniProt P33766); experiment: Antagonist activity at mouse FPR1 expressed in HEK293 cells assessed as inhibition of fMLFF-stimulated intracellular calcium mobilisation by FLIPR assay; assay type: functional, cell-based
T6 sequence (P33766 whole entry): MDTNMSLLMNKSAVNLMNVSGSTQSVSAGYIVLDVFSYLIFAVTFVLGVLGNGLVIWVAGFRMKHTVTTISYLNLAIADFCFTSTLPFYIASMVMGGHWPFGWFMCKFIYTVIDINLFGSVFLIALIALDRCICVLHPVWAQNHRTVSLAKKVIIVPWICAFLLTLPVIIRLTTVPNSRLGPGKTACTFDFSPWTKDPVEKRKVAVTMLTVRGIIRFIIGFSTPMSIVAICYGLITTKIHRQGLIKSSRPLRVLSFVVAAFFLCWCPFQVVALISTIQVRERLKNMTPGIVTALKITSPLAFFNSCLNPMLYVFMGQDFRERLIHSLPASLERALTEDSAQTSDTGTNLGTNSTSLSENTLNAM

[20] = target: T2, fMet-Leu-Phe receptor (Homo sapiens); experiment: Agonist activity at FPR1 in human neutrophils assessed as increase in calcium mobilization at 50 uM by FLIPR assay; assay type: functional
[21] = target: T2, fMet-Leu-Phe receptor (Homo sapiens); experiment: Antagonist activity at FPR1 in human neutrophils assessed as inhibition of fMLF-stimulated calcium mobilization at 50 uM by FLIPR assay; assay type: functional

SMILES: CSCCC(NC(=O)c1ccc(C)cc1)c1nc2ccccc2[nH]1 (centres undefined)
pIC50 [1]: 5.00

SMILES: CCc1cc2c(=O)c(-c3nc4ccccc4n3C)c(C)oc2cc1OC(C)=O
pKi [3]: 7.00

SMILES: CSCCC(NC(=O)c1sccc1Cl)c1ncc(-c2ccccc2)[nH]1 (centres undefined)
inhibition [2]: < 25%
pIC50 [1]: 5.20

SMILES: Cc1cccc(C)c1NC(=O)C(NC(=O)c1ccccc1O)C1CCCCC1 (centres undefined)
pIC50 [1]: 6.10

SMILES: CCOc1ccc2oc(C(=O)N[C@@H](CSC)c3nc4ccccc4[nH]3)c(C)c2c1
pIC50 [1]: < 4.60

SMILES: Cc1cccc(C)c1NC(=O)C(c1ccccc1)N(C)C(=O)c1ccccc1O (centres undefined)
pIC50 [1]: 5.00

SMILES: CSCCC(NC(=O)c1ocnc1C)c1nc2ccccc2[nH]1 (centres undefined)
pIC50 [1]: 5.00

SMILES: Cc1cccc(C)c1NC(=O)C(NC(=O)c1ccccc1O)c1cn(C)cn1 (centres undefined)
pIC50 [1]: 5.80

SMILES: Cc1ccccc1C(=O)NC(C(=O)Nc1c(C)cccc1C)c1ccc(Cl)cc1 (centres undefined)
inhibition [21]: < 25%

SMILES: Cc1cccc(C)c1NC(=O)C(NC(=O)c1nc2ccccc2[nH]c1=O)c1ccc(Cl)cc1 (centres undefined)
pIC50 [1]: 5.60

SMILES: CCOc1ccc2oc(C(=O)NC(c3nc4ccccc4[nH]3)c3cccs3)c(C)c2c1 (centres undefined)
inhibition [21]: < 25%

Further lines, with some results ahead:

inhibition [2]: < 25%
pIC50 [1]: 6.50
SMILES: CSCCC(NC(=O)c1ccccc1)c1nc2ccccc2n1Cc1ccc(C#N)cc1 (centres undefined)

CL [4]: 70 µL/min
inhibition [5]: < 25%
pIC50 [6]: 7.00
inhibition [8]: < 25%
pIC50 [9]: 6.40
pIC50 [10]: 5.90
half-life [11]: > 10.8 days
pIC50 [12]: 6.40
inhibition [13]: < 25%
solubility [15]: 68 µM (≈ 26.8 µg/mL)
inhibition [16]: Active
microsomal CLint [17]: 43 µL/min/mg
pIC50 [18]: 5.80
pIC50 [19]: 4.60
pIC50 [1]: 6.50
inhibition [20]: < 25%
SMILES: Cc1ccc(C(NC(=O)c2ccccc2O)C(=O)Nc2c(C)cccc2C)s1 (centres undefined)
inhibition [7]: < 25%
pIC50 [14]: 4.10

inhibition [21]: < 25%
SMILES: COc1ccccc1C(=O)NC(CCSC)c1nc2ccccc2[nH]1 (centres undefined)

inhibition [21]: < 25%
SMILES: COc1ccccc1C(=O)NC(C(=O)Nc1c(C)cccc1C)c1ccc(Cl)cc1 (centres undefined)

inhibition [21]: < 25%
microsomal CLint [17]: 14 µL/min/mg
SMILES: CCOc1ccc2oc(C(=O)NC(c3ccccc3)c3nc4ccccc4[nH]3)c(C)c2c1 (centres undefined)

inhibition [2]: < 25%
SMILES: CCOc1ccc2oc(C(=O)NC(CCSC)c3nc4ncccc4[nH]3)c(C)c2c1 (centres undefined)

pIC50 [1]: 6.10
SMILES: Cc1cccc(C)c1NC(=O)C(NC(=O)c1ccccc1O)c1ccc(Cl)cc1 (centres undefined)

pIC50 [1]: 6.00
SMILES: CCC[C@H](NC(=O)c1oc2ccc(OCC)cc2c1C)c1nc2ccccc2[nH]1
